Experimental findings from patent US20260035403A1, “NUCLEOSIDE LINE-1 INHIBITORS” (TRANSPOSON THERAPEUTICS, INC., priority 2022, published 2026) are described below.

One assay has as its system human LINE-1. As to the kind of experiment: Human LINE-1 retrotransposition assay (HeLa cell-based dual-luciferase reporter). The following applies: Homo sapiens, HeLa, 72 h, Human LINE-1 activity inhibition; HeLa cells, reporter plasmid pYX017, Firefly/Renilla, 72 h incubation. How it is done: Representative Compounds of the Disclosure were tested for inhibition of retrotransposition activity of human LINE-1 in HeLa cells according to the following procedure.
HeLa cervical cancer cells were cultivated at 37° C. in a humidified 5% CO2 incubator in Dulbecco's Modified Eagle's Medium (DMEM)—high glucose, with 4500 mg/L glucose, L-glutamine, sodium pyruvate and sodium bicarbonate (Sigma), supplemented with 10% of heat inactivated fetal bovine serum (Thermo Fisher).
Assays were performed using reporter plasmid pYX017 as described (Xie, et al., 2011) with several modifications. The reporter assay was performed in 96-well white optical bottom plates. HeLa cells were seeded in wells 24 h prior to transfection and compound treatment so that cells were approximately 30% confluent on the day of transfection. Different cell plating densities were tested and a density of 2×10^3 cells was determined to be optimal.
Compounds were resuspended in DMSO. Serial dilutions (1:3) were prepared in DMSO. Medium containing different concentrations of the compounds were prepared by adding 2 μl of the compound dilution to 1 ml of the culture medium. The final concentration of DMSO in the medium was 0.2%.
FuGENE® HD transfection reagent (Promega, E2311, Lot 382574 and Lot 397842) was used to transfect the plasmids into the cells. The transfection reagent: DNA mixture was prepared in OpiMEM (Thermo Fisher) according to manufacturer's instructions. Different ratios of transfection reagent to DNA were tested and a ratio of 3:1 was determined to be optimal. Culture medium was removed from the cells and discarded. The transfection reagent: DNA mixture (5 μl) was mixed with the compound containing medium (100 μl/well) and this was added onto the cells of each well. Cells were incubated at 37° C./5% CO2 for different incubation time. A 72 h incubation time was determined to be optimal.
Luciferase reporter activity was quantified with the Dual-Luciferase® Reporter Assay System (Promega) according to manufacturer's instructions for multiwell plates except that cells were lysed directly on the multiwell plate with 30 μl of the passive lysis buffer (PLB) for 20 min at room temperature, with gentle shaking to ensure complete cell lysis.
Firefly and Renilla luciferase signals were measured using a SpectraMax i3× Multi-Mode Microplate Reader. Integration times of 100 ms and 10 ms were used to measure the Firefly and Renilla signals respectively. Relative L1 activity is calculated as Firefly/Renilla*1000 or Firefly/Renilla*10,000. Dose response inhibition data were fit to a four parameter logistic equation using non-linear regression (using Graphpad Prism 8), to determine IC50 values for each inhibitor.
(In a reporter assay the amount or activity of a reporter protein is the signal.)
Turning to `C=C[C@]1(CO)O[C@@H](n2cnc3c(O)nc(N)nc32)C[C@@H]1O` [Cpd. No. 9, 2-amino-9-((2R,4S,5R)-4-hydroxy-5-(hydroxymethyl)-5-vinyltetrahydrofuran-2-yl)-1H-purin-6(9H)-one], the IC50 (usually the concentration that inhibits the measured activity by half) turned out to be 0.013 µM. Same read-out and setting: as for `CC[C@]1(CO)O[C@@H](n2cc(OC)c(=O)[nH]c2=O)C[C@@H]1O` [Cpd. No. 103, 1-((2R,4S,5R)-5-ethyl-4-hydroxy-5-(hydroxymethyl)tetrahydrofuran-2-yl)-5-methoxypyrimidine-2,4(1H,3H)-dione], the figure is more than 12.5 µM; as for `C=C[C@]1(CO)O[C@H](n2cnc3c(O)nc(N)nc32)C[C@@H]1O` [compound 87, 2-amino-9-((2S,4S,5R)-4-hydroxy-5-(hydroxymethyl)-5-vinyltetrahydrofuran-2-yl)-9H-purin-6-ol], 0.173 µM. Still for that read-out and setting: under `C#C[C@@]1(CO)C=C[C@H](n2cc(SC(F)(F)F)c(=O)[nH]c2=O)O1` [compound 73, 1-((2R,5R)-5-ethynyl-5-(hydroxymethyl)-2,5-dihydrofuran-2-yl)-5-((trifluoromethyl)thio)pyrimidine-2,4(1H,3H)-dione] stands more than 50 µM; under `C#C[C@@]1(CO)C=C[C@H](n2cc(CC)c(=O)[nH]c2=O)O1` [compound 35, 5-ethyl-1-((2R,5R)-5-ethynyl-5-(hydroxymethyl)-2,5-dihydrofuran-2-yl)pyrimidine-2,4(1H,3H)-dione], more than 50 µM. Same read-out and setting: under `C=C[C@]1(CO)O[C@H](n2cc(Br)c(=O)[nH]c2=O)C[C@@H]1O` [compound 65, 5-bromo-1-((2S,4S,5R)-4-hydroxy-5-(hydroxymethyl)-5-vinyltetrahydrofuran-2-yl)pyrimidine-2,4(1H,3H)-dione] stands 21.9 µM. `C#C[C@]1(CO)O[C@H](n2cnc3c(N)ncnc32)C[C@@H]1O` [compound 80, (2R,3S,5S)-5-(6-amino-9H-purin-9-yl)-2-ethynyl-2-(hydroxymethyl)tetrahydrofuran-3-ol] gave a 50% inhibitory concentration (IC50) of 3.7 µM. Still for that read-out and setting: as for `C=C[C@]1(CO)O[C@@H](n2cc(C#N)c(=O)[nH]c2=O)C[C@@H]1O` [Cpd. No. 69, 1-((2R,4S,5R)-4-hydroxy-5-(hydroxymethyl)-5-vinyltetrahydrofuran-2-yl)-2,4-dioxo-1,2,3,4-tetrahydropyrimidine-5-carbonitrile], the figure is 6.2 µM; as for `C#C[C@@]1(CO)C=C[C@H](n2cc(C#N)c(=O)[nH]c2=O)O1` [compound 33, 1-((2R,5R)-5-ethynyl-5-(hydroxymethyl)-2,5-dihydrofuran-2-yl)-2,4-dioxo-1,2,3,4-tetrahydropyrimidine-5-carbonitrile], more than 12.5 µM; as for `C=C[C@]1(CO)O[C@@H](n2cnc3c(NC4CC4)ncnc32)C[C@@H]1O` [Cpd. No. 94, (2R,3S,5R)-5-(6-(cyclopropylamino)-9H-purin-9-yl)-2-(hydroxymethyl)-2-vinyltetrahydrofuran-3-ol], more than 50 µM.

For the compound `C#C[C@@]1(CO)O[C@@H](n2cnc3c(=O)[nH]c(N)nc32)C[C@H]1O` [Cpd. No. 79, 2-amino-9-[(2R,4R,5S)-5-ethynyl-4-hydroxy-5-(hydroxymethyl)tetrahydrofuran-2-yl]-1H-purin-6-one], the half-inhibitory concentration (IC50) is 17 µM. `C#C[C@]1(CO)OC(n2cnc(C(N)=O)n2)C[C@@H]1O` (stereo partly drawn) [Cpd. No. 11, 1-((4S,5R)-5-ethynyl-4-hydroxy-5-(hydroxymethyl)tetrahydrofuran-2-yl)-1H-1,2,4-triazole-3-carboxamide] showed an IC50 of more than 50 µM. On the same count and under the same terms, as for `C=C[C@]1(CO)OC(n2cc(OC)c(=O)[nH]c2=O)C[C@@H]1O` (stereo partly drawn) [compound 66, 1-((4S,5R)-4-hydroxy-5-(hydroxymethyl)-5-vinyltetrahydrofuran-2-yl)-5-methoxypyrimidine-2,4(1H,3H)-dione], the figure is 0.738 µM. The same measure, in the same setting: under `C=C[C@]1(CO)O[C@@H](n2cc(F)c(N)nc2=O)C[C@@H]1O` [Cpd. No. 8, 4-amino-5-fluoro-1-((2R,4S,5R)-4-hydroxy-5-(hydroxymethyl)-5-vinyltetrahydrofuran-2-yl)pyrimidin-2(1H)-one] stands 0.009 µM; under `C#C[C@]1(CO)OC(n2cc(Br)c(=O)[nH]c2=O)C[C@@H]1O` (stereo partly drawn) [compound 44, 5-bromo-1-((4S,5R)-5-ethynyl-4-hydroxy-5-(hydroxymethyl)tetrahydrofuran-2-yl)pyrimidine-2,4(1H,3H)-dione], 2.2 µM. Same read-out and setting: as for `C#C[C@]1(CO)OC(n2cc(C#N)c(=O)[nH]c2=O)C[C@@H]1O` (stereo partly drawn) [compound 58, 1-((4S,5R)-5-ethynyl-4-hydroxy-5-(hydroxymethyl)tetrahydrofuran-2-yl)-2,4-dioxo-1,2,3,4-tetrahydropyrimidine-5-carbonitrile], the figure is more than 50 µM. In turn, `CC[C@]1(CO)O[C@@H](n2cnc3c(N)nc(Cl)nc32)C[C@@H]1O` [compound 190, (2R,3S,5R)-5-(6-amino-2-chloro-9H-purin-9-yl)-2-ethyl-2-(hydroxymethyl)tetrahydrofuran-3-ol] had an IC50 of approximately 50 µM. Still for that read-out and setting: under `C#C[C@]1(CO)O[C@@H](n2ccc(N)nc2=O)C(F)(F)[C@@H]1O` [compound 200, 4-amino-1-((2R,4R,5R)-5-ethynyl-3,3-difluoro-4-hydroxy-5-(hydroxymethyl)tetrahydrofuran-2-yl)pyrimidin-2(1H)-one] stands 414 µM.

In the case of `C=C[C@]1(CO)O[C@@H](n2cnc3c(O)ncnc32)C[C@@H]1O` [Cpd. No. 100, 9-((2R,4S,5R)-4-hydroxy-5-(hydroxymethyl)-5-vinyltetrahydrofuran-2-yl)-9H-purin-6-ol], the half-maximal inhibitory concentration (IC50) was 1.7 µM.

Regarding `C#C[C@]1(CO)O[C@H](n2cnc3c(NC4CC4)nc(F)nc32)C[C@@H]1O` [compound 84, (2R,3S,5S)-5-(6-(cyclopropylamino)-2-fluoro-9H-purin-9-yl)-2-ethynyl-2-(hydroxymethyl)tetrahydrofuran-3-ol], the IC50 is 14 µM. Regarding `C#C[C@]1(CO)O[C@@H](n2cnc3c(N)nc(F)nc32)[C@H](F)[C@@H]1O` [compound 13, (2R,3R,4R,5R)-5-(6-amino-2-fluoro-9H-purin-9-yl)-2-ethynyl-4-fluoro-2-(hydroxymethyl)tetrahydrofuran-3-ol], the half-maximal inhibitory concentration (IC50) amounted to 370 µM.

For `CC[C@]1(CO)O[C@H](n2cc(C)c(=O)[nH]c2=O)CC1O` (stereo partly drawn) [compound 71, 1-((2S,5R)-5-ethyl-4-hydroxy-5-(hydroxymethyl)tetrahydrofuran-2-yl)-5-methylpyrimidine-2,4(1H,3H)-dione], it took 1.6 µM to reach half-maximal inhibition (IC50). The same measure, in the same setting: as for `C=C[C@]1(CO)O[C@H](Nc2[nH]c(=O)ncc2Br)C[C@@H]1O` [compound 104, 5-bromo-6-(((2S,4S,5R)-4-hydroxy-5-(hydroxymethyl)-5-vinyltetrahydrofuran-2-yl)amino)pyrimidin-2(1H)-one], the figure is 4.9 µM; as for `C#C[C@]1(CO)OC(n2cnc3c(OC)ncnc32)C[C@@H]1O` (stereo partly drawn) [compound 61, (2R,3S)-2-ethynyl-2-(hydroxymethyl)-5-(6-methoxy-9H-purin-9-yl)tetrahydrofuran-3-ol], 7.43 µM.

The same assay, now with this note: Human LINE-1 activity inhibition; HeLa cells, reporter plasmid pYX017, Firefly/Renilla, 72 h incubation.
Compound `C#C[C@@]1(CO)C=C[C@H](n2cc(F)c(=O)[nH]c2=O)O1` [compound 22, 1-((5R)-5-ethynyl-5-(hydroxymethyl)-2,5-dihydrofuran-2-yl)-5-fluoropyrimidine-2,4(1H,3H)-dione] gave an IC50 of 20.1 µM.
